Laboratory results reported in patent US20190218261A1, “TARGETED ENHANCED DNA DEMETHYLATION” (The Jackson Laboratory, priority 2016, published 2019).

System: hMLH1 expression (methylation-silenced hMLH1 promoter) in HEK293T cells
Assay: hMLH1 mRNA levels by TaqMan qRT-PCR in transfected HEK293T cells
Format: cell-based, human
Conditions: for hMLH1 activation, comparison in words (direct dCas9 fusions vs Casilio-ME): same combination of sgRNAs; for hMLH1 expression, fold over background (change in mRNA levels): sgRNAs 3+7, 60 hours post-transfection, GAPDH control; for stimulation of TET1(CD) mediated hMLH1 activation by GADD45A PUFc fusions: co-expressed with PUFa-TET1(CD), gRNAs-PBSac
Experimental: To test the system, HEK293T cells were transfected with Casilio-ME components including Ct or Nt-fusion TET1-effector and a combination of 3 or 2 sgRNAs. Relative levels of hMLH1 mRNA were determined in TaqMan assays by using RNA extracted from cells 60 hours post-transfection and GAPDH as endogenous control for normalization of qRT-PCR measurements.
Cell culture and transfection. HEK293T cells were cultivated in Dulbecco's modified Eagle's medium (DMEM)(Sigma) with 10% fetal bovine serum (FBS)(Lonza), 4% Glutamax (Gibco), 1% Sodium Pyruvate (Gibco) and penicillin-streptomycin (Gibco) in an incubator set to 37° C. and 5% CO2. When indicated cells were treated with 2.5 μM or 5 μM 5-Azacytidine (sigma) as indicated with a daily change of medium containing freshly diluted drug. Cells were seeded into 12-well plates at 150,000 cells per well the day before being transfected with 100 ng of dCas9 construct, 100 ng of modified sgRNA construct and 200 ng of PUF-fusion with Attractene transfection reagent according to manufacturer's instructions (Qiagen). In dCas9-direct fusion experiments, cells were transfected with 200 ng dCas9-fusion constructs and 200 ng of modified sgRNA constructs. Transfected cells were harvested 60 hours after transfection, or otherwise indicated, and cell pellets were used for extractions of RNA, genomic DNA and protein.
Quantitative RT-PCR analysis. Cells were harvested, washed with Dulbecco's phosphate-buffered saline (dPBS), centrifuged at 125×g for 5 min and then the flash-frozen pellets were stored at −80° C. RNA was extracted using RNeasy Plus Mini Kit according to the manufacturer's instructions (Qiagen). cDNA libraries were made using Applied Biosystems High Capacity RNA-to-cDNA kit with 200 ng to 1 μg of RNA. TaqMan gene expression assays (Applied Biosystems) were designed using GAPDH (Hs03929097, VIC) as endogenous control and hMLH1 (Hs00179866, FAM) as target. TaqMan Universal Master Mix II, with UNG (Applied Biosystems) was used for Quantitative PCR (qPCR), with 2 μl of diluted cDNA used for each reaction. Activation was analyzed with the Applied Biosystems ViiA7 instrument. Gene expression levels were calculated by “delta delta Ct” algorithm and normalized to control samples.
HEK293T cells were cultivated in Dulbecco's modified Eagle's medium (DMEM) (Sigma) with 10% fetal bovine serum (FBS) (Lonza), 4% Glutamax (Gibco), 1% Sodium Pyruvate (Gibco) and penicillin-streptomycin (Gibco) in an incubator set to 37° C. and 5% CO2. Cells were seeded into 12-well plates at 150,000 cells per well the day before being transfected with 100 ng of dCas9 construct, 100 ng of modified sgRNA construct and 200 ng of PUF-fusion with Attractene transfection reagent according to manufacturer's instructions (Qiagen). Transfected cells were harvested 3 days after transfection, or otherwise indicated, and cell pellets were used for RNA extractions.
Cells were harvested, washed with Dulbecco's phosphate-buffered saline (dPBS), centrifuged at 125×g for 5 min and then the flash-frozen pellets were stored at −80° C. RNA was extracted using RNeasy Plus Mini Kit according to the manufacturer's instructions (Qiagen). cDNA libraries were made using Applied Biosystems High Capacity RNA-to-cDNA kit with 200 ng to 2 μg of RNA. TaqMan gene expression assays (Applied Biosystems) were designed using GAPDH (Hs03929097, VIC) as endogenous control and hMLH1 (Hs00179866, FAM) as target. TaqMan Universal Master Mix II, with UNG (Applied Biosystems) was used for Quantitative PCR (qPCR), with 2 μl of diluted cDNA used for each reaction. Activation was analyzed with the Applied Biosystems ViiA7 instrument. Gene expression levels were calculated by “delta delta Ct” algorithm and normalized to control samples.

| Molecule | hMLH1 activation, comparison in words (direct dCas9 fusions vs Casilio-ME) (HEK293T) | hMLH1 expression, fold over background (change in mRNA levels) (HEK293T) | stimulation of TET1(CD) mediated hMLH1 activation by GADD45A PUFc fusions | further results |
| --- | --- | --- | --- | --- |
| TET1(CD)-dCas9: direct N-terminal fusion of TET1(CD) to dCas9; SEQ ID NO:52 | much weaker activation than its respective C-terminal fusion | – | – | – |
| dCas9-TET1(CD): direct C-terminal fusion of TET1(CD) to dCas9; SEQ ID NO:53 | relatively weak activation | 19 fold | – | hMLH1 activation relative to dCas9-p65HSF1 (HEK293T, same sgRNA combination): at best twice the activity obtained with transcription activator dCas9 fusion; hMLH1 activation as share of activation obtained using Casilio-ME (same sgRNAs combination, parallel experiment): about 14% |
| TET1(CD)-PUFa: TET1 catalytic domain fused to N-terminus of PUFa; SEQ ID NO:54 (protein) MGPAELPTCSCLDRVIQKDKGPYYTHLGAGPSVAAVREIMENRYGQKGNAIRIEIVVYTGKEGKSSHGCPIAKWVLRRSSDEEKVLCLVRQRTGHHCPTAVMVVLIMVWDGIPLPMADRLYTELTENLKSYNGHPTDRRCTLNENRTCTCQGIDPETCGASFSFGCSWSMYFNGCKFGRSPSPRRFRIDPSSPLHEKNLEDNLQSLATRLAPIYKQYAPVAYQNQVEYENVARECRLGSKEGRPFSGVTACLDFCAHPHRDIHNMNNGSTVVCTLTREDNRSLGVIPQDEQLHVLPLYKLSDTDEFGSKEGMEAKIKSGAIEVLAPRRKKRTCFTQPVPRSGKKRAAMMTEVLAHKIRAVEKKPIPRIKRKNNSTTTNNSKPSSLPTLGSNTETVQPEVKSETEPHFILKSSDNTKTYSLMPSAPHPVKEASPGFSWSPKTASATPAPLKNDATASCGFSERSSTPHCTMPSGRLSGANAAAADGPGISQLGEVAPLPTLSAPVMEPLINSEPSTGVTEPLTPHQPNHQPSFLTSPQDLASSPMEEDEQHSEADEPPSDEPLSDDPLSPAEEKLPHIDEYWSDSEHIFLDANIGGVAIAPAHGSVLIECARRELHATTPVEHPNRNHPTRLSLVFYQHKNLNKPQHGFELNKIKFEAKEAKNKKMKASEQKDQAANEGPEQSSEVNELNQIPSHKALTLTHDNVVTVSPYALTHVAGPYNHWVIDGGGGSDPKKKRKVDPKKKRKVDPKKKRKVGSTGSRNDGGGGSGGGGSGGGGSGRAGILPPKKKRKVSRGRSRLLEDFRNNRYPNLQLREIAGHIMEFSQDQHGSRFIQLKLERATPAERQLVFNEILQAAYQLMVDVFGNYVIQKFFEFGSLEQKLALAERIRGHVLSLALQMYGSRVIEKALEFIPSDQQNEMVRELDGHVLKCVKDQNGNHVVQKCIECVQPQSLQFIIDAFKGQVFALSTHPYGCRVIQRILEHCLPDQTLPILEELHQHTEQLVQDQYGNYVIQHVLEHGRPEDKSKIVAEIRGNVLVLSQHKFASNVVEKCVTHASRTERAVLIDEVCTMNDGPHSALYTMMKDQYANYVVQKMIDVAEPGQRKIVMHKIRPHIATLRKYTYGKHILAKLEKYYMKNGVDLGDPKKKRKVDPKKKRKVGGRGGGGSGGGGSGGGGSGPA | – | ≤ 20 fold | – | – |
| PUFa-GADD45A-TET1(CD): GADD45A between PUFa and TET1(CD); SEQ ID NO:105 (protein) MIDGGGGSDPKKKRKVDPKKKRKVDPKKKRKVGSTGSRNDGGGGSGGGGSGGGGSGRAGILPPKKKRKVSRGRSRLLEDFRNNRYPNLQLREIAGHIMEFSQDQHGSRFIQLKLERATPAERQLVFNEILQAAYQLMVDVFGNYVIQKFFEFGSLEQKLALAERIRGHVLSLALQMYGSRVIEKALEFIPSDQQNEMVRELDGHVLKCVKDQNGNHVVQKCIECVQPQSLQFIIDAFKGQVFALSTHPYGCRVIQRILEHCLPDQTLPILEELHQHTEQLVQDQYGNYVIQHVLEHGRPEDKSKIVAEIRGNVLVLSQHKFASNVVEKCVTHASRTERAVLIDEVCTMNDGPHSALYTMMKDQYANYVVQKMIDVAEPGQRKIVMHKIRPHIATLRKYTYGKHILAKLEKYYMKNGVDLGDPKKKRKVDPKKKRKVGGRGGGSGGGSGGGSGGGSGGGSGGGSLTLEEFSAGEQKTERMDKVGDALEEVLSKALSQRTITVGVYEAAKLLNVDPDNVVLCLLAADEDDDRDVALQIHFTLIQAFCCENDINILRVSNPGRLAELLLLETDAGPAASEGAEQPPDLHCVLVTNPHSSQWKDPALSQLICFCRESRYMDQWVPVINLPERSRGRGGGGSGGGGSGGGGSGPAELPTCSCLDRVIQKDKGPYYTHLGAGPSVAAVREIMENRYGQKGNAIRIEIVVYTGKEGKSSHGCPIAKWVLRRSSDEEKVLCLVRQRTGHHCPTAVMVVLIMVWDGIPLPMADRLYTELTENLKSYNGHPTDRRCTLNENRTCTCQGIDPETCGASFSFGCSWSMYFNGCKFGRSPSPRRFRIDPSSPLHEKNLEDNLQSLATRLAPIYKQYAPVAYQNQVEYENVARECRLGSKEGRPFSGVTACLDFCAHPHRDIHNMNNGSTVVCTLTREDNRSLGVIPQDEQLHVLPLYKLSDTDEFGSKEGMEAKIKSGAIEVLAPRRKKRTCFTQPVPRSGKKRAAMMTEVLAHKIRAVEKKPIPRIKRKNNSTTTNNSKPSSLPTLGSNTETVQPEVKSETEPHFILKSSDNTKTYSLMPSAPHPVKEASPGFSWSPKTASATPAPLKNDATASCGFSERSSTPHCTMPSGRLSGANAAAADGPGISQLGEVAPLPTLSAPVMEPLINSEPSTGVTEPLTPHQPNHQPSFLTSPQDLASSPMEEDEQHSEADEPPSDEPLSDDPLSPAEEKLPHIDEYWSDSEHIFLDANIGGVAIAPAHGSVLIECARRELHATTPVEHPNRNHPTRLSLVFYQHKNLNKPQHGFELNKIKFEAKEAKNKKMKASEQKDQAANEGPEQSSEVNELNQIPSHKALTLTHDNVVTVSPYALTHVAGPYNHWVID | – | – | – | enhancement of hMLH1 expression relative to PUFa-TET1(CD) alone (GADD45A two-in-one effectors, HEK293T, TaqMan): 4 fold |
| PUFc-GADD45A: SEQ ID NO:106 (protein) MIDGGGGSDPKKKRKVDPKKKRKVDPKKKRKVGSTGSRNDGGGGSGGGGSGGGGSGRAGILPPKKKRKVSRGRSRLLEDFRNNRYPNLQLREIAGHIMEFSQDQHGSRFIQLKLERATPAERQLVFNEILQAAYQLMVDVFGNYVIQKFFEFGSLEQKLALAERIRGHVLSLALQMYGSRVIEKALEFIPSDQQNEMVRELDGHVLKCVKDQNGNHVVQKCIECVQPQSLQFIIDAFKGQVFALSTHPYGCRVIQRILEHCLPDQTLPILEELHQHTEQLVQDQYGSYVIEHVLEHGRPEDKSKIVAEIRGNVLVLSQHKFANNVVQKCVTHASRTERAVLIDEVCTMNDGPHSALYTMMKDQYANYVVQKMIDVAEPGQRKIVMHKIRPHIATLRKYTYGKHILAKLEKYYMKNGVDLGDPKKKRKVDPKKKRKVGGRGGGGSGGGGSGGGGSGPALTLEEFSAGEQKTERMDKVGDALEEVLSKALSQRTITVGVYEAAKLLNVDPDNVVLCLLAADEDDDRDVALQIHFTLIQAFCCENDINILRVSNPGRLAELLLLETDAGPAASEGAEQPPDLHCVLVTNPHSSQWKDPALSQLICFCRESRYMDQWVPVINLPERSRYPYDVPDYA | – | – | significant stimulation of the TET1(CD) mediated hMLH1 activation | – |
| GADD45A-PUFc: SEQ ID NO:107 (protein) MTLEEFSAGEQKTERMDKVGDALEEVLSKALSQRTITVGVYEAAKLLNVDPDNVVLCLLAADEDDDRDVALQIHFTLIQAFCCENDINILRVSNPGRLAELLLLETDAGPAASEGAEQPPDLHCVLVTNPHSSQWKDPALSQLICFCRESRYMDQWVPVINLPERSRYPYDVPDYAIDGGGGSDPKKKRKVDPKKKRKVDPKKKRKVGSTGSRNDGGGGSGGGGSGGGGSGRAGILPPKKKRKVSRGRSRLLEDFRNNRYPNLQLREIAGHIMEFSQDQHGSRFIQLKLERATPAERQLVFNEILQAAYQLMVDVFGNYVIQKFFEFGSLEQKLALAERIRGHVLSLALQMYGSRVIEKALEFIPSDQQNEMVRELDGHVLKCVKDQNGNHVVQKCIECVQPQSLQFIIDAFKGQVFALSTHPYGCRVIQRILEHCLPDQTLPILEELHQHTEQLVQDQYGSYVIEHVLEHGRPEDKSKIVAEIRGNVLVLSQHKFANNVVQKCVTHASRTERAVLIDEVCTMNDGPHSALYTMMKDQYANYVVQKMIDVAEPGQRKIVMHKIRPHIATLRKYTYGKHILAKLEKYYMKNGVDLGDPKKKRKVDPKKKRKVGGRGGGGSGGGGSGGGGSGPA | – | – | higher activity compared to PUFc-GADD45A fusions | – |
